In patent US9492496B2, “Aminothiazoles and their uses” (Novartis AG, priority 2007, dated 2016):

Tested on: prokaryotic transcription-translation (E. coli S30 extract)
Experiment: In vitro assay for inhibition of prokaryotic transcription-translation (Promega E. coli S30 Extract System, pBESTluc luciferase readout)
Type: biochemical
Details: 2 uM compound, 2 h at 37° C., luciferase luminescence
Procedure: In vitro assay for inhibition of prokaryotic transcription-translation [as described in the following references: 1. Zubay, G. (1973) In vitro synthesis of protein in microbial systems. Annu. Rev. Genet. 7, 267.87. 2. Zubay, G. (1980) The isolation and properties of CAP, the catabolite gene activator. Meth. Enzymol. 65, 856.77]. Antibiotic and compound dilutions: stock solutions of compound to be assayed at 2 μM are 80 μM in 40% DMSO. Stock solutions of compounds to be assayed at 10 μM are 400 μM in 40% DMSO.
Assay setup and protocol for Promega E. coli S30 Extract System
The assay is performed as follows: pipet 3.5 μl of 286 ng/μl template DNA (pBESTluc™) into assay wells. Negative control wells receive sdH2O only. Transfer 0.5 μl of 40× compound stock solution to assay wells. Positive control wells (no compound) receive 0.5 μl 40% DMSO sdH2O. Pipet 16 μl of master mix into assay wells. Incubate plate for two hours at 37° C. Rapidly chill the assay plate on ice for five minutes to stop the reaction. Add an equal volume (20 μl) of room temperature Steady-Glo® Luciferase assay reagent to all assay wells. Incubate 20 minutes and read light emitted with luminometer. Results are reported as % inhibition a 2 μM or 10 μM.

Compound	% inh. @ 2 uM
CNC(=O)C[C@@H]1NC(=O)c2csc(n2)-c2ccc(-c3nc(N(CCCC(=O)O)C(=O)CCCCCC(=O)O)cs3)nc2-c2csc(n2)-c2csc(n2)[C@H]([C@@H](O)c2ccccc2)NC(=O)CNC(=O)c2nc(sc2COC)C(C(C)C)NC(=O)c2nc1sc2C (stereo partly drawn) [Compound 12]	2 uM = 82.4%
CNC(=O)C[C@@H]1NC(=O)c2csc(n2)-c2ccc(-c3nc(N(CCCCCCC(=O)O)C(=O)O[C@H]4CC[C@H](C(=O)O)CC4)cs3)nc2-c2csc(n2)-c2csc(n2)[C@H]([C@@H](O)c2ccccc2)NC(=O)CNC(=O)c2nc(sc2COC)C(C(C)C)NC(=O)c2nc1sc2C (stereo partly drawn) [Compound 5]	2 uM = 78.5%
CNC(=O)C[C@@H]1NC(=O)c2csc(n2)-c2ccc(-c3nc(N(CCCCC(=O)O)C(=O)OCCC(CCCCC(=O)O)C(=O)O)cs3)nc2-c2csc(n2)-c2csc(n2)[C@H]([C@@H](O)c2ccccc2)NC(=O)CNC(=O)c2nc(sc2COC)C(C(C)C)NC(=O)c2nc1sc2C (stereo partly drawn) [Compound 30]	2 uM = 83.93%
CNC(=O)C[C@@H]1NC(=O)c2csc(n2)-c2ccc(-c3nc(N(CCCCC(=O)O)C(=O)O[C@H]4CC[C@H](C(=O)O)CC4)cs3)nc2-c2csc(n2)-c2csc(n2)[C@H]([C@@H](O)c2ccccc2)NC(=O)CNC(=O)c2nc(sc2COC)C(C(C)C)NC(=O)c2nc1sc2C (stereo partly drawn) [Compound 6]	2 uM = 86.8%
CNC(=O)C[C@@H]1NC(=O)c2csc(n2)-c2ccc(-c3nc(N(CCCC(=O)O)C(=O)O[C@H]4CC[C@H](C(=O)O)CC4)cs3)nc2-c2csc(n2)-c2csc(n2)[C@H]([C@@H](O)c2ccccc2)NC(=O)CNC(=O)c2nc(sc2COC)C(C(C)C)NC(=O)c2nc1sc2C (stereo partly drawn) [Compound 4]	2 uM = 85.3%
CNC(=O)C[C@@H]1NC(=O)c2csc(n2)-c2ccc(-c3nc(N(CCCCC(=O)O)C(=O)[C@H]4CC[C@H](C(=O)O)CC4)cs3)nc2-c2csc(n2)-c2csc(n2)[C@H]([C@@H](O)c2ccccc2)NC(=O)CNC(=O)c2nc(sc2COC)C(C(C)C)NC(=O)c2nc1sc2C (stereo partly drawn) [Compound 16]	2 uM = 64.3%
CNC(=O)C[C@@H]1NC(=O)c2csc(n2)-c2ccc(-c3nc(N(C/C=C/C(=O)O)C(=O)O[C@H]4CC[C@H](C(=O)O)CC4)cs3)nc2-c2csc(n2)-c2csc(n2)[C@H]([C@@H](O)c2ccccc2)NC(=O)CNC(=O)c2nc(sc2COC)C(C(C)C)NC(=O)c2nc1sc2C (stereo partly drawn) [Compound 19]	2 uM = 76.4%
CNC(=O)C[C@@H]1NC(=O)c2csc(n2)-c2ccc(-c3nc(N(CCCCC(=O)O)C(=O)OCC(CCCCC(=O)O)CC(=O)O)cs3)nc2-c2csc(n2)-c2csc(n2)[C@H]([C@@H](O)c2ccccc2)NC(=O)CNC(=O)c2nc(sc2COC)C(C(C)C)NC(=O)c2nc1sc2C (stereo partly drawn) [Compound 32]	2 uM = 78.0%
CNC(=O)C[C@@H]1NC(=O)c2csc(n2)-c2ccc(-c3nc(N(CCCCC(=O)O)C(=O)[C@H]4CC[C@H]4C(=O)O)cs3)nc2-c2csc(n2)-c2csc(n2)[C@H]([C@@H](O)c2ccccc2)NC(=O)CNC(=O)c2nc(sc2COC)C(C(C)C)NC(=O)c2nc1sc2C (stereo partly drawn) [Compound 10]	2 uM = 2.0%
